# Like-named read-outs stand apart in the source and are kept apart here. Where no end group is shown, it is not given here.
# Legend:
# Staphylococcus camosus = assay: Radial Diffusion Assay using minimal conditions (MEC); type: cell-based; conditions: Table 8
# Method: (§1) A modified version of a previously published protocol has been applied in the detection of antimicrobial activity (Lehrer et al., (1991) Ultra sensitive assays for endogenous antimicrobial polypeptides J Immunol Methods 137: 167-173). Target bacteria (10^6 colony forming units (CFU)) were added to 10 ml of underlay agarose (1% low electro-endosmosis agarose, 0.03% Trypticase soy broth, 10 mM sodium phosphate, pH 7.4, 37 degrees Celsius). Suspension was solidified on an INTEGRID Petri Dish (Becton Dickinson Labware). A 3 mm Gel Puncher was used to make holes in the underlay agarose (Amersham Pharmacia Biotech, Sweden). Samples were added to the holes and incubated at 37 degrees Celsius, 3 hours. An overlay was poured on top and the plate was incubated overnight (LB media, 7.5% Agar). Antimicrobial activity was seen as bacterial clearing zones around the wells. Living cells was counterstained by adding 10 ml, 0.2 mM MTT (3-(4,5-Dimethylthiazol-2-yl)-2,5-diphenyltetrazolium bromide Thiazolyl blue).
# (§2) The antimicrobial activity of the polypeptides of the invention was also analyzed in a Radial Diffusion Assay (see Example 1) using minimal conditions. Two bacterial strains were tested in this setup; Staphylococcus camosus and Escherichia coli Top10. The amino acid sequence of the polypeptides and the Minimal Effective Concentration (MEC, microgram/ml) obtained is presented in table 8 below.
# Escherichia coli Top10 = assay: as above; type: cell-based; conditions: Table 8
# Method: as §1, §2
# [1] = system: Pseudomonas aeroginosa (ATCC27853); type: cell-based, Pseudomonas aeruginosa
# Method: (§3) According to the NCCLS guidelines for susceptibility test of novel antimicrobial compounds, we found a broad spectrum of activity of Cat1 (Methods for Dilution Antimicrobial Susceptibility Tests for Bacteria That Grow Aerobically; Approved Standard-Fifth Edition. NCCLS document M7-A5 (ISBN1-56238-394-9)).
# (§4) In another campaign, the specific MICs of Cat1 were determined against a variety of microbial strains relevant for wound infections. As recommended in the above-mentioned NCCLS protocol, the strains were grown in cationic adjusted Muller-Hinton Broth. The highest concentration tested was 32 μg/ml.
# Minimal inhibitory concentrations of Cat1 were also determined using cation-adjusted Mueller hinton broth (MHB) in the microbroth dilution assay, wherein MHB was used with different modifications as depicted in Table 2 below. The selected test organism was Pseudomonas aeroginosa (ATCC 27853). […]
# bacteria strains = assay: NCCLS microdilution broth assay, minimal bactericidal concentration (MBC); type: cell-based; conditions: compared with MIC (<64 μg/ml) of the susceptible strains
# Description: as §3
# [2] = system: Micrococcus luteus (ATCC9341); type: cell-based; conditions: susceptible strain, NCCLS guidelines
# Method: as §3, §4
# (§5) The antimicrobial activity of the polypeptides of the invention was analyzed using the Microdilution Broth Assay (see Example 1) with Mueller Hinton Broth (MHB) media. Four different bacterial strains were tested in this setup; Micrococcus luteus (ATCC 9341), Pseudomonas aeruginosa (ATCC 27853), Escherichia coli (ATCC 10536) and Klebsiella pneumoniae (DSM681). The amino acid sequence of the polypeptides and the Minimal Inhibitory concentrations (MIC, microgram/ml) obtained is presented in Table 7 below.
# [3] = system: Staphylococcus epidermidis (DSM1798); assay: NCCLS microdilution broth assay (MIC); type: cell-based; conditions: susceptible strain, NCCLS guidelines
# Description: as §3
# [4] = system: Proteus mirabilis (ATCC7002); assay: NCCLS microdilution broth assay (MIC); type: cell-based; conditions: susceptible strain, NCCLS guidelines
# Description: as §3
# [5] = system: Bacillus subtilis (ATCC6633); assay: NCCLS microdilution broth assay (MIC); type: cell-based; conditions: susceptible strain, NCCLS guidelines
# Description: as §3
# [6] = system: Bortadella bronchiseptica (ATCC4617); assay: NCCLS microdilution broth assay (MIC); type: cell-based; conditions: susceptible strain, NCCLS guidelines
# Description: as §3
# [7] = system: Enterococcus faecalis (DSM2570); assay: NCCLS microdilution broth assay (MIC); type: cell-based; conditions: susceptible strain, NCCLS guidelines
# Description: as §3
# [8] = system: Klepsiella pneumoniae (ATCC10031); assay: NCCLS microdilution broth assay (MIC); type: cell-based; conditions: susceptible strain, NCCLS guidelines
# Description: as §3
# [9] = system: Klebsiella pneumoniae (DSM681); type: cell-based
# Method: as §3, §5
sequence,measurement,setting,value
GLLRRLRKKIGKKLKKIGQKIKPIRILVP [SEQ ID NO: 3],MEC,Staphylococcus camosus,2.5 µg/mL
same,MEC,Escherichia coli Top10,8.5 µg/mL
same,MIC,"[1]; ATCC27853, pH 5.5",6 mg/L
same,MIC,"[1]; ATCC27853, pH 6.5",6 mg/L
same,MIC,"[1]; susceptible strain, NCCLS guidelines",< 64 mg/L
same,Minimal bactericidal concentration (MBC),bacteria strains,in a similar range
same,MIC,[2],< 64 mg/L
same,MIC,[3],< 64 mg/L
same,MIC,[4],< 64 mg/L
same,MIC,[5],< 64 mg/L
same,MIC,[6],< 64 mg/L
same,MIC,[7],< 64 mg/L
same,MIC,[8],< 64 mg/L
same,MIC,[9],32 to 64 mg/L
